This series in a line: gradient 5% acetonitrile 3 min, to 50% in 2 min, to 85% in 15 min, held 3 min, 100 µL/min. The conditions noted are these: column: Zorbax Extend-C18 2.1 x 50 mm; eluents: water / acetonitrile, 0.1% formic acid. In a few lines: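 A Zorbax Extend-C18 column (2.1 × 50 mm, 1.8 μm) run at 100 μL/min with water and acetonitrile, both containing 0.1% formic acid, separated mixtures of ~100 pure standards. The HPLC was coupled to a quadrupole time-of-flight mass spectrometer operated in positive and negative ionization mode, with dead and dwell volumes of 40 μL and 900 μL. Each retention time was taken from a computationally picked adduct peak that was then manually inspected.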
Molecule `CCc1nc(-c2cccc(C)c2)c(-c2ccnc(NC(=O)c3ccccc3)c2)s1` returned an RP-LC retention time of 1200 s. Take `CCCC(=O)N1CCC(c2nc(CCOCC3CC3)no2)C1` (stereo not given): the RP-LC retention time came to 729 s.

In turn, `CCc1cccc(NC(=O)N2CCC(CC(=O)N3CCCCC3)CC2)c1` showed an RP-LC retention time of 751 s. Turning to `COc1ccc(-c2nc(C3CC(=O)N(c4ccc(OC)c(OC)c4)C3)no2)cc1` (stereo not given), the RP-LC retention time was determined as 1180 s.

The molecule `O=C(NCc1ccc(C(F)(F)F)cc1)C1=C2CCCN2c2ccccc2S1(=O)=O` yielded an RP-LC retention time of 922 s. For `Cn1nc(C(=O)NCc2ccc3c(c2)OCO3)c2c1CCN(C(=O)COc1ccc(F)cc1)C2` the value was 765 s; for `CCn1cc(C(=O)NCc2ccccc2C(F)(F)F)c2cccnc21`, 863 s; for `Cc1ccc(NC(=O)CSc2nnc3c4cc(-c5ccc(F)cc5)nn4ccn23)c(C)c1`, 931 s. For `Cc1ccc(S(=O)(=O)N2CCC(CN3CCCC(C)C3)CC2)cc1F` (stereo not given) the value was 702 s; for `O=C(NCc1ccc(F)cc1Cl)c1cc(C2CC2)n2nccc2n1`, 1010 s; for `CC(C)OCCCNC(=O)c1cc2n(n1)CCCN(Cc1ccc(F)cc1)C2=O`, 795 s. For the molecule `Cc1cccc(CNC(=O)C2(C)Cn3cnc(C(=O)NCc4ccc(F)cc4)c3C(=O)N2C2CC2)c1` (stereo not given), the RP-LC retention time worked out at 798 s. Under `CN(CC1(C)CCOCC1)C(=O)COc1ccccc1` stands 742 s; under `CCn1cc(C)c(C(=O)O)c1CC(=O)NCCN1CCN(C)CC1`, 561 s. For `O=C(Cn1c(=O)c2cccn2c2ccccc21)Nc1cccc(C(F)(F)F)c1` the value was 880 s. Under `COC1CN(c2ccc(C)cc2)C12CCNCC2` (stereo not given) stands 622 s. Consider `CC(NS(=O)(=O)c1cccc(Cl)c1)C(=O)Nc1ccc(Br)cc1F` (stereo not given), for which the RP-LC retention time amounted to 912 s. Under `O=C(c1ccco1)N1CCN(c2ccc3cc(S(=O)(=O)N4CCOCC4)ccc3n2)CC1` stands 661 s. Under `CCc1cc(C(=O)Nc2cc(C)ccc2OC)nc2ccnn12` stands 1190 s; under `COc1cc(NC(=O)NCC2(O)CCCC2)cc(OC)c1`, 660 s; under `Cc1noc(C)c1-c1ccc(S(=O)(=O)Nc2ccccc2)cc1`, 912 s. In the case of `COc1ccc(-c2cc(=O)n3c4ccccc4n(CC(=O)NC(C)C)c3n2)cc1`, the RP-LC retention time is 853 s. Consider `CC(C)(C)NC(=O)Cc1cccn1-c1ccc(Cl)cc1`, for which the RP-LC retention time was found to be 994 s.

Molecule `O=C1CC(c2noc(-c3cc(F)cc(F)c3)n2)CN1c1ccc(F)c(Cl)c1` (stereo not given) had an RP-LC retention time of 1110 s. On to `O=c1ccc(-c2ccccc2)nn1Cc1nc(-c2cccc(Br)c2)no1`, for which the RP-LC retention time was determined as 1090 s.

Turning to `CCc1nnc2ccc(NC(=O)Nc3cccc(F)c3)cn12`, the RP-LC retention time came out at 710 s. For `CCN1CCn2cc(C(=O)NCc3ccc(SC)cc3)nc2C1` the value was 596 s; for `CCCNC(=O)C1CCN(c2ccc(SCC(=O)NCc3cccs3)nn2)CC1`, 602 s. For `CC(C)NC(=O)c1c2c(nc3ccc(F)cc13)CCCC2` the value was 631 s; for `O=C(c1sc2cc(F)ccc2c1Cl)N1CCN(c2ccccn2)CC1`, 693 s; for `O=C1CC(c2noc(-c3cccc(OC(F)(F)F)c3)n2)CN1c1ccc(Cl)cc1` (stereo not given), 1210 s. For `CCOC(=O)C(C)Oc1ccc2c(=O)c(Oc3ccccc3OCC)coc2c1` (stereo not given) the value was 971 s. With `CCn1cc(-c2nc(-c3ccccc3OC)no2)c(=O)c2cc(F)ccc21`, the RP-LC retention time came to 820 s. For `Cc1cccc(-n2cc(C(=O)OCc3cccnc3)c3ccccc3c2=O)c1` the value was 808 s. Take `CCOc1ccc(NC(=O)N2CCN(Cc3nc4ccccc4o3)CC2)cc1`: the RP-LC retention time was 681 s. For `COc1ccc2c(CCNC(=O)c3ccccc3OC)c[nH]c2c1` the value was 788 s. In turn, `CCN1C(=O)C2(CCN(S(=O)(=O)c3ccc4c(c3)CCC4)CC2)c2ccccc21` yielded an RP-LC retention time of 1170 s. In the case of `COCCNC(=O)CCCn1c(=O)c2cccn2c2ccccc21`, the RP-LC retention time was 680 s. Under `Cc1ccc(CNC(=O)c2ccc3c(c2)CC(=O)N3C)cc1` stands 730 s. Turning to `CCOC(=O)c1c(C)oc2ncnc(Nc3ccc(OC)c(Cl)c3)c12`, the RP-LC retention time was found to be 1270 s. For `CCC1CCCCN1CCCNC(=O)C1CCCN(c2ncnc3c2nc2n3CCCCC2)C1` (stereo not given) the value was 604 s; for `CCNC(=O)C1CCN(c2nc3ccc(-c4ccc(F)cc4)nc3s2)CC1`, 861 s. Under `COc1cc(OC)cc(-c2noc(Cn3cnc4c(oc5ccccc54)c3=O)n2)c1` stands 944 s; under `CCOc1cccc(CNC(=O)c2ccc3c(=O)n(Cc4ccccc4)c(N(CC)CC)nc3c2)c1`, 1170 s. In turn, `O=C(NCCCc1ccccc1)C1CCN(C(=O)N2CCOc3ccc(Cl)cc32)CC1` returned an RP-LC retention time of 948 s. Under `CCOC(=O)CN1N=C(C(=O)N2CCC(C)CC2)S(=O)(=O)c2ccc(C)cc21` stands 939 s. In turn, `CCc1noc(NC(C)=O)c1-c1ccc(C)c(S(=O)(=O)N2CCOCC2)c1` yielded an RP-LC retention time of 743 s. `Cc1c(-c2nn3c(Cc4ccccc4)nnc3s2)nnn1-c1ccc(Cl)cc1` came in with an RP-LC retention time of 1040 s. For `O=C(NCc1cccs1)c1cccc2c1CCN2C(=O)c1ccc(F)cc1` the value was 858 s. For `O=C(NC1CCCCC1)N1CCc2nc(-c3ccc(F)cc3)ncc2C1` the value was 882 s; for `Cc1ccnc(Nc2nc(C)c(C(=O)N3CCC(C(N)=O)(N4CCCCC4)CC3)s2)c1`, 561 s.

As for `Cc1ccn2cc(C(=O)N3CCN(c4ccccc4F)CC3)nc2c1`, the RP-LC retention time stood at 662 s. Under `Cn1c(CNC(=O)C2CCC2)nc2c1CN(C(=O)c1ccc(C(F)(F)F)s1)CC2` stands 656 s; under `O=C(c1ccc(Cl)s1)N1CCN(S(=O)(=O)C2CC2)CC1`, 743 s.

The molecule `Cc1cccc(-c2noc(Cn3ncn4nc(-c5cc(C)ccc5C)cc4c3=O)n2)c1` had an RP-LC retention time of 1270 s. For `CCCn1c(=O)c2cc(C(=O)N3CCN(Cc4ccccc4)CC3)nn2c2ccccc21` the value was 590 s; for `O=c1ccn(-c2cccc(F)c2)nc1-c1nc(-c2ccc(F)cc2)no1`, 902 s; for `CCOc1ccc(NC(=O)Cn2nc3cc(C)nc(-c4ccccc4)n3c2=O)cc1`, 705 s. `COCCNC(=O)CSc1cn(CC(=O)N2CC(C)OC(C)C2)c2ccccc12` (stereo not given) yielded an RP-LC retention time of 709 s. Take `COc1ccccc1-c1noc(C2CCCN2C(=O)Nc2ccc(C)cc2)n1` (stereo not given): the RP-LC retention time came out at 877 s.

For the origin of these results see the METLIN SMRT retention time set (Domingo-Almenara et al. 2019).
